Like-named read-outs stand apart in the source and are kept apart here.
Legend:
[1] = test system: osteoclast differentiation; assay: Inhibitory effects on osteoclast differentiation (co-culture of bone marrow cells with osteoblast, TRAP staining); type: cell-based, mice; details: co-culture of bone marrow cells and osteoblast, 7 days, TRAP-positive osteoclasts versus controls; for inhibition at 1 µM: Mus musculus, Osteoclast, 168 h, read-out: % inhibitory activity on osteoclastogenesis
Summary of the method: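 Bone marrow cells from 6–8-week male ddY mice co-cultured with neonatal ICR mouse calvarial osteoblasts in α-MEM/FBS with dexamethasone (10^−7M) and vitamin D3 (10^−8M) for 7 days, compound and medium renewed every 2–3 days. TRAP-positive cells with ≥3 nuclei counted; inhibition given as percent of control.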

[2] = test system: osteoblast; assay: Effect on bone formation (osteoblast nodule mineralization, Alizarin red S); type: cell-based, ICR mice; details: calvarial osteoblast in osteogenic differentiation medium
Method: The osteoblast, treated in this experiment, was prepared from the osteoblast as prepared in the above.
The osteoblast, isolated from sequential enzymatic treatment of calvariae from neonated ICR mice, was cultured in α-MEM medium containing 10% FBS for 4˜5 days. The osteoblast was also cultured for 24 hr after seeding the cells on a 12 well plate (10^5 cell/well), and medium was exchanged with the osteogenic differentiation medium containing 10 mM β-glycerophosphate and 50 μg/ml ascorbic acid.
The test substances at the concentration of 0.1 uM and 0.1 nM were added to the above medium for evaluating the effect promoting bone formation. The differentiation medium containing the test substances was exchanged every 3 or 4 days for 14 to 21 days until confirming the nodule mineralization.
The cell was rinsed twice with distilled water, and fixed by the 10% formalin solutions for 30 minutes. Alizarin red S and Von-kossa Solution were treated on the plate for measuring deposited calcium and phosphate in cell matrix, and the activity of the test substances on the bone formation was analyzed by determining stained area.
Additionally, for the purpose of estimating quantitative Arizarin red S in cell matrix, stained Arizarin red S was extracted by treating 10 mM sodium phosphate solution (pH 7.0), containing 10% cetylpyridinium chloride, for 15˜30 minutes in the shaking incubator, and then the amount of the deposited calcium was estimated by calculating the absorbance of the extracted Arizarin red S at 564 nm. […]

[3] = test system: cells; assay: Cytotoxicity test (MTT); type: cell-based; details: 10^−6M, 72 hrs, compared with the control group
Summary of the method: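 Benzamidine derivatives were checked for cytotoxicity with an MTT assay. Test substances were diluted in a suitable solvent to 10^−2M. Cells were seeded at 1×10^4 cell/100 μL per well in 96-well microplates and grown for 72 hrs. During the final 4 hrs, 25 μL of MTT (2 mg/mL in PBS) was added. Plates were then centrifuged, the medium removed, formazan dissolved in 100 μL DMSO, and absorbance read at 540 nm.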

SMILES	inhibition at 1 µM ([1]; 1 μm)	melting point	bone forming activity (%) ([2]; 0.1 nM)	bone forming activity (%) ([2]; 0.1 μM)	% inhibitory activity on osteoclastogenesis ([1]; 1 μm)	Survival rates of the cells ([3]; MC3T3-E1 cells)	Survival rates of the cells ([3]; ST2 cells)	inhibition at 1 µM ([1]; 1 m)
Cc1sc(-c2cccnc2)nc1-c1ccc(OCCCCCOc2ccc(C(=N)NO)cc2)cc1 [Example 13, N-hydroxy-4-(5-[4-(5-methyl-2-pyridin-3-yl-1,3-thiazol-4-yl)phenoxy]pentoxy)-benzamidine]	73.5%	138 to 150 °C	–	–	–	–	–	–
CC(C)c1nc(-c2ccc(OCCCCCOc3ccc(C(=N)NO)cc3)cc2)c(CC2CCCC2)s1 [Example 47, N-hydroxy-4-(5-[4-(5-cyclopentylnnethyl-2-isopropyl-1,3-thiazol-4-yl)phenoxy]pentoxy)-benzamidine]	–	–	9.4%	11.31%	90.0%	54.2%	24.0%	–
CCCN(CCC)c1nc(-c2ccc(OCCCCCOc3ccc(C(=N)NO)cc3)cc2)c(CC)s1 [Example 138, N-hydroxy-4-(5-[4-(2-dipropylamino-5-ethyl-1,3-thiazol-4-yl)phenoxy]pentoxy)-benzamidine]	–	–	8.81%	6.32%	–	–	–	91%
